Data set [1] has as its system IL-18. The data set is described as follows: IL18/Baseline, skin sensitization potential in HEK. As to conditions: HEK cultures, positive control. It counts as cell-based, human. The protocol: It is possible for a test article to not be cytotoxic, and yet be unsafe due to provoking an allergic reaction upon skin contact. Typically, initial exposure to an allergen sensitizes the immune system, and following exposures cause an allergic response. […] We therefore evaluated IL-18 production in HEK treated with test articles to determine their sensitization potential.
Normal human adult epidermal keratinocytes (HEK) were cultured as described in Example 6 above. […] The cell lysates were collected, and IL-18 was quantified using Human IL-18 ELISA Kit (Catalog #7620, produced by MBL International Co., Woburn, Mass., USA). […] Fold changes of IL-18 levels between test articles and respective vehicle controls were calculated and compared to pPD (positive control). […]

For data set [2] the following is noted: oral and dermal routes; cited from earlier work.
For data set [3] the following is noted: laboratory animals; cited from earlier work.
The test system of data set [4] is endocrine (androgenic/estrogenic) activity. The settings on record: cited from earlier work.

As for `Nc1ccc(N)cc1` [benchmark sensitizer, para-phenylenediamine], the “IL-18 induction compared to vehicle control (in words)” value in data set [1] is on record as “significantly induced IL-18”.

With `COc1ccc(C(=O)c2ccccc2)c(O)c1` [BP-3, Benzophenone-3], the “Absorption (in words)” value in data set [2] is “rapidly absorbed via oral and dermal routes”. In addition, the “Hormonal activity (in words)” value in data set [3] was “weak hormonal activity”. The “Anti-estrogenic activity (in words)” value in data set [4] was “anti-estrogenic activity”. Moreover, in data set [4] (receptor binding assay), the “Anti-androgenic activity (in words)” value is “strong anti-androgenic” and the “Estrogenic activity (in words)” value was “weak estrogenic”.

(Values after patent publication US11000056B2, “Bioactive serum fraction from achachairu (Garcinia humilis) which is free of benzophenone and proteins” (ISP Investments LLC, priority 2015, dated 2021).)
